Source: publication PMC5372468, “Quantitative analysis of molecular partition towards lipid membranes using surface plasmon resonance” (Scientific Reports, 2017)
Several values for one entry are separate records, joined by “and”; a condition that tells them apart may be missing. Equal entries are not always repeated. Where two headings read alike, the source gives them in different places.

Tests used:
[1] = SPR membrane partition on L1 sensor chip, deposited POPC SUV (steady-state and dissociation models); type: physicochemical; conditions: 10 mM HEPES, 150 mM NaCl, pH 7.4, 25 °C; for Kp (Steady-state Model) / σ (molar lipid:solute ratio at membrane saturation, Steady-state Model): SPR Biacore X100, L1 chip, association 200 s at 5 μL/min, ±SD, three independent replicates; for Kp (Steady-state Model): POPC SUV (50 nm extrusion), 0.25-700 μM solute, equation (S22) fitted to RUS/RUL vs [S]W, full concentration range; for σ (molar lipid:solute ratio at membrane saturation, Steady-state Model) / Kp (linear partition model, equation (S23)): POPC SUV; for σ (molar lipid:solute ratio at membrane saturation, Steady-state Model): equation (S22); for Kp (linear partition model, equation (S23)): SPR, L1 chip, equation (S23) fitted to the low-concentration linear region only
Procedure: Lyophilized ENF and KTP were solubilized in 10 mM HEPES, 150 mM NaCl, pH 7.4 buffer to a 1 mg/mL stock solution concentration. Purified F63 stock solutions (~1 mg/mL) were prepared in the same buffer. Lyophilized HRC4 was first solubilized in DMSO to 40 mg/mL, then diluted in 10 mM HEPES, 150 mM NaCl, pH 7.4 buffer for the experiments. The final DMSO content was maintained at 2% (v/v) in all HRC4 experiments. ENF, KTP and HRC4 stock solutions were sonicated in an ultrasonic bath for a 10 min period.
Small unilamellar vesicles (SUV) suspensions were prepared as described before. Briefly, the lipid mixture was dissolved in chloroform in a round bottom flask. Chloroform was evaporated under a constant nitrogen flow. The resulting lipid film was dried in vacuum, overnight. A multilamellar vesicle suspension (MLV) was obtained after lipid film rehydration with 10 mM HEPES, 150 mM NaCl, pH 7.4 buffer and a series of 10 freeze/thaw cycles. MLV suspensions were extruded through a 50 nm track-etched polycarbonate membrane from Whatman/GE Healthcare (Maidstone, United Kingdom). Extrusion was performed in a LiposoFast-Basic plus Stabilizer setup from Avestin (Mannheim, Germany). POPC, POPC:Chol (2:1), POPC:Chol:SM […] and POPC:DPPC (1:1) mixtures were prepared. SUV hydrodynamic diameter (DH) and sample polydispersity were characterized through dynamic light scattering (DLS, Supplementary Fig. S1).
SPR experiments were carried out in a Biacore X100 apparatus from GE Healthcare. Temperature was set at 25 °C for all experiments. A 10 mM HEPES, 150 mM NaCl, pH 7.4 solution was used as running buffer for F63, ENF and KTP experiments. Alternatively, 10 mM HEPES, 150 mM NaCl, pH 7.4 containing 2% (v/v) DMSO was used for HRC4 experiments. The flow system was primed three times before initiating an experiment. The L1 sensor chip was used in all experiments. The sensor chip surface was rinsed with three injections of 20 mM CHAPS before SUV deposition. 1 mM lipid SUV samples were injected over the L1 sensor chip for 2400 s, at a 2 μL/min flow speed. Typical RU values for POPC, POPC:Chol (2:1), and POPC:Chol:SM (1:1:1) SUV depositions were ~8000, ~10000 and ~10500, respectively. Loose vesicles were removed with a 36 s injection of 10 mM NaOH at 50 μL/min. F63, ENF and KTP at defined concentrations (between 0.25 and 700 μM) were injected over pre-formed lipid vesicle-coated surfaces at 5 μL/min, for a total of 200 s (association phase). Samples were also injected at 30 μL/min to confirm the absence of mass transfer effects. Solutes were allowed to dissociate for 800 s. L1 sensor chip surface regeneration was performed with sequential injections of 20 mM CHAPS (5 μL/min for 60 s), 0.5% (w/v) SDS (5 μL/min for 60 s), 10 mM NaOH containing 20% (v/v) methanol (50 μL/min for 36 s) and 10 mM NaOH (50 μL/min for 36 s). Baseline response values were compared before and after each experiment to evaluate the effectiveness of the surface regeneration.
Raw SPR sensorgram data were collected for both lipid deposition and solute binding. SUV deposition response values were collected from sensorgrams upon reaching a stable response. For each studied molecule, association steady-state response values were collected from individual sensorgrams at t = 200 s. Dissociation response data were collected between 200 and 1000 s of each sensorgram.
The steady-state model is a mathematical approach to rigorously quantify solute membrane partition using current SPR lipid bilayer-solute association response data. The partition formalism of equation (S22), can be directly fitted to RUS/RUL vs [S]W data sets to retrieve Kp and σ values. While σ values are very important for specific applications (membrane-targeting antibiotics, for instance[25]), Kp is a fundamental membrane interaction parameter studied for both endogenous and therapeutic molecules. […]

[2] = partition constant towards POPC membranes, fluorescence spectroscopy, 100 nm-diameter LUV, ±SD, cited from earlier work
[3] = data previously obtained; ref [25]; cited from earlier work
Source text: If only Kp is desired, a simplified version of the steady-state model (equation (S23)) can be applied to the linear region in each partition plot (Fig. 2, right panel insets). We applied the steady-state model in full to determine σ for each molecule in addition to Kp. […] The σ of ENF and KTP were, respectively, 50 and 69.

Molecule: N=C(N)NCCC[C@H](NC(=O)[C@@H](N)Cc1ccc(O)cc1)C(=O)O [KTP, kyotorphin]
- Kp (Steady-state Model) [1]: 0.10 × 10^3 and 0.10 (±0.01) × 10^3
- σ (molar lipid:solute ratio at membrane saturation, Steady-state Model) [1]: ~69 and 69 and 69.0 (±6.3)
- Kp (linear partition model, equation (S23)) [1]: 0.06 × 10^3
- Kp (Literature) ([2]; ref [27]): 0.66 × 10^3 and 0.66 (±0.23) × 10^3

Molecule: omiganan
- σ (lipid:solute ratio at membrane saturation) [3]: 66

Molecule: Enfuvirtide
- Kp (Steady-state Model) [1]: 6.41 × 10^3 and 6.41 (±0.50) × 10^3
- σ (molar lipid:solute ratio at membrane saturation, Steady-state Model) [1]: ~50 and 50 and 50.4 (±2.0)
- Kp (linear partition model, equation (S23)) [1]: 5.29 × 10^3
- Kp (Literature) ([2]; ref [26]): 3.20 × 10^3 and 3.20 (±0.20) × 10^3
